Test results as given in patent publication US20210290581A1, “NEUROREGENERATION IMPROVED BY KETONE” (UNIVERSITY OF SOUTH FLORIDA, priority 2016, published 2021).

How the values were obtained:
rat primary neurons [1] = assay: immunofluorescence staining of the scratch assay (cell nuclei, Beta tubulin, synapsins); assay type: cell-based, Sprague Dawley rats; details: 2 mM; after 24 hours; 10×, 20×, 60×; compared to control
Method: (§1) Cortical neurons from embryonic (E18) Sprague Dawley rats were isolated and cultured as described in Katnic, Guerrero et al. 2006. Briefly, excised brains were digested with 0.25% trypsin. Isolated cells were suspended in DMEM supplemented with fetal bovine serum (FBS, 10%, heat inactivated), penicillin (100 IU/ml), streptomycin ([…]) and amphotericin B1 ([…]) (Antibiotic/Antimycotic) and plated on poly-L-lysine coated coverslips. Following 24 hour incubation, the DMEM solution was replaced with Neurobasal media supplemented with B-27 (10 ml) and 0.5 mM L-glutamine. 3 week old rat primary neurons were exposed to 2 mM R,S-Sodium-3-hydroxibutyrate. The cell monolayer was scraped with a P100 pipette tip to create a scratch. Cell debris was removed by washing with culture medium. 100 snapshots were taken of the cell migration/cell regeneration into the scratch space over 24 hours by CytoSmart system.
The primary neurons underwent immunofluorescence staining. This fluorescence imaging on the scratch assay (after 24 hours/3-week old primary neurons) can be seen in FIGS. 6A-6B, 7A-7B, 8A-8B, and 9A-9B. The images have been lightened for illustrative purposes. Each of these figures includes four (4) images, labeled as I-IV. […]

rat primary neurons [2] = assay: scratch assay in primary neuronal cell cultures followed for 24 hours with CytoSmart system; assay type: cell-based, Sprague Dawley rats; details: 2 mM
Method: Ketone bodies serve as alternative fuel for the brain when glucose availability is limited. In humans, BHB is synthesized in the liver from acetoacetate, the first ketone produced in the fasting state. Its biosynthesis is catalyzed by the enzyme beta-hydroxybutyrate dehydrogenase. The effect of ketone bodies on cell regeneration in primary neuronal cell cultures was tested by using a scratch assay that was followed for 24 hours with a CYTOSMART system.
as §1

## CC(O)CC(=O)[O-].[Na+] (centres unmarked) [R,S-Sodium-3-hydroxibutyrate]
Rat primary neurons [1]
  cell nuclei visible around the regeneration site and in the scratch area: More cell nuclei are visible around the regeneration site
  density of synapsins and tubulin at the regeneration site: higher density of synapsins and tubulin
Rat primary neurons [2]; 24 hours, 20× (p=0.01) and 10× (p=0.0004) magnification, versus control
  DAPI stained cell nuclei in the scratch space area: significantly more DAPI stained cell nuclei
Rat primary neurons [2]; 24 hours, control about 0.9%
  increase in cell coverage per 24 hours: about 3.3%
Rat primary neurons [2]; over the 24-hour period, versus control
  cell migration and regeneration of the damaged area: more intense cell migration and regeneration of the damaged area
